pEC50, pIC50: −log10 of the molar value.
What was measured:
[1] = Inhibition of 20S proteasome
[2] = test system: HT-29; test: Cytotoxicity against human HT-29 cells; format: functional, cell-based

| SMILES | pIC50 [1] | pEC50 [2] |
| --- | --- | --- |
| CCCC[C@H]1CCCC[C@H](C)[C@@H](O)c2cc(O)c(c(O)c2)[C@@H](CCCCCl)CCCC[C@H](C)[C@@H](O)c2cc(O)c1c(O)c2 [CYLINDROCYCLOPHANE A1] | 4.56 | – |
| CCCC[C@H]1CCCC[C@H](C)[C@@H](O)c2cc(O)c(c(O)c2)[C@@H](CCCC(Cl)Cl)CCCC[C@H](C)[C@@H](O)c2cc(O)c1c(O)c2 [CYLINDROCYCLOPHANE A2] | 5.59 | 5.77 |
| C[C@H]1CCCC[C@H](CCCCCl)c2c(O)cc(cc2O)[C@H](O)[C@@H](C)CCCC[C@H](CCCC(Cl)Cl)c2c(O)cc(cc2O)[C@@H]1O [CYLINDROCYCLOPHANE A3] | 5.56 | 6.30 |
| C[C@H]1CCCC[C@H](CCCC(Cl)Cl)c2c(O)cc(cc2O)[C@H](O)[C@@H](C)CCCC[C@H](CCCC(Cl)Cl)c2c(O)cc(cc2O)[C@@H]1O [CYLINDROCYCLOPHANE A4] | 5.41 | 5.70 |
| C[C@H]1CCCC[C@H](CCCC(Br)Br)c2c(O)cc(cc2O)[C@H](O)[C@@H](C)CCCC[C@H](CCCC(Br)Br)c2c(O)cc(cc2O)[C@@H]1O [CYLINDROCYCLOPHANE AB4] | 5.65 | 6.30 |
| CCCC[C@H]1CCCC[C@H](C)[C@@H](O)c2cc(O)c(c(O)c2)[C@@H](CCCC)CCCC[C@H](C)[C@@H](O)c2cc(O)c1c(O)c2 [CYLINDROCYCLOPHANE A] | 4.47 | – |
| CCCC[C@H]1CCCC[C@H](C)Cc2cc(O)c(c(O)c2)[C@@H](CCCC(Cl)Cl)CCCC[C@H](C)[C@@H](O)c2cc(O)c1c(O)c2 [CYLINDROCYCLOPHANE C2] | 4.64 | 6.05 |
| C[C@H]1CCCC[C@H](CCCC(Cl)Cl)c2c(O)cc(cc2O)[C@H](O)[C@@H](C)CCCC[C@H](CCCC(Cl)Cl)c2c(O)cc(cc2O)C1 [CYLINDROCYCLOPHANE C4] | 4.95 | 5.55 |
| CCCC[C@H]1CCCC[C@H](C)Cc2cc(O)c(c(O)c2)[C@@H](CCCC)CCCC[C@H](C)[C@@H](O)c2cc(O)c1c(O)c2 [CYLINDROCYCLOPHANE C] | 4.23 | – |
| C[C@H]1CCCC[C@H](CCCC(Cl)Cl)c2c(O)cc(cc2O)C[C@@H](C)CCCC[C@H](CCCC(Cl)Cl)c2c(O)cc(cc2O)C1 [CYLINDROCYCLOPHANE F4] | 4.35 | – |
| CCCC[C@H]1CCCC[C@H](C)Cc2cc(O)c(c(O)c2)[C@@H](CCCC)CCCC[C@H](C)Cc2cc(O)c1c(O)c2 [CYLINDROCYCLOPHANE F] | < 4.00 | – |

From ChEMBL document CHEMBL1221408, “Cylindrocyclophanes with proteasome inhibitory activity from the Cyanobacterium Nostoc sp” (J Nat Prod, 2010)
